What was measured:
HCV Replicon = HCV Replicon inhibition; type: cell-based; details: Hepatitis C virus
HCV NS5B polymerase = biological target: T1, HCV NS5B polymerase (Hepatitis C virus genotype 1a, UniProt P27958); assay: Replizyme HCV heterotemplate radioactive RNA-dependent RNA-polymerase (RdRp) assay; type: biochemical; details: pre-incubated 30 minutes at 37° C., reaction 90 minutes at 37° C.; read-out: HCV NS5B inhibition EC50
T1 construct: pre-incubated with the RNA template and NS5B polymerase protein; purchased Replizyme
T1 sequence (P27958 2421-3011): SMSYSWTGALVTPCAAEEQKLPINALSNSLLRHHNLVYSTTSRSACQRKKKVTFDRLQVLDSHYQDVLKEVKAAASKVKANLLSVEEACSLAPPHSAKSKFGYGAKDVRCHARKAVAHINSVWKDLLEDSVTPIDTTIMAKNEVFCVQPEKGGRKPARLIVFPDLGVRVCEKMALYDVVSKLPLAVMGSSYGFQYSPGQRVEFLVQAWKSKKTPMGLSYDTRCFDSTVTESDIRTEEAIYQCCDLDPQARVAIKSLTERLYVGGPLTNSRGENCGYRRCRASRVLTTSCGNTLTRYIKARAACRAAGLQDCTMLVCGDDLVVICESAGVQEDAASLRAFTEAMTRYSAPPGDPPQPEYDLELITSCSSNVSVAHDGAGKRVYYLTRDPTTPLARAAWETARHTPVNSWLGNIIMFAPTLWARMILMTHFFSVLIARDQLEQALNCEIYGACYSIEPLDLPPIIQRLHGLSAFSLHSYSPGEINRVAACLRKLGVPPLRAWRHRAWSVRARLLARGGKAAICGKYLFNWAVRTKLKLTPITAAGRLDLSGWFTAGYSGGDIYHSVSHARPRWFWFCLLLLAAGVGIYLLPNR
Method: The compounds were tested in the Replizyme HCV heterotemplate radioactive RNA-dependent RNA-polymerase (RdRp) assay. The test compounds were pre-incubated with the RNA template and NS5B polymerase protein at 37° C. for 30 minutes. The RdRp reaction was initiated with the addition of the NTPs to the buffer-NS5B-compound mix, and was allowed to proceed for 90 minutes at 37° C. Control reactions included: no enzyme, 5% DMSO (test compound solvent), no compound/solvent, Cordycepin-TP and HCV-796 (IC50 values used as a reference inhibition). Radioactive products were collected by applying the stopped reaction to DE-81 paper, air dried prior to washing with buffer comprising NaH2PO4 and sodium pyrophosphate to remove unincorporated ^32P-GTP in the NTP mix, and rinsed with dH2O followed by 100% ethanol. The DE-81 paper was air dried, squares cut out and placed in scintillation tubes for counting.

Compound `CC(C)(C)CCc1c(=O)c(C2=NS(=O)(=O)c3cc(NS(C)(=O)=O)ccc3N2)c(O)n2cc(F)ccc12` [Compound 104S] has an EC50 (HCV Replicon) of less than 100 nM and an EC50 (HCV NS5B polymerase) of less than 100 nM.

`CS(=O)(=O)Nc1ccc2c(c1)S(=O)(=O)N=C(c1c(O)n3cc(F)ccc3c(Cc3cc(F)cc(F)c3)c1=O)N2` [Compound 101] gave an EC50 (HCV Replicon) of less than 100 nM and an EC50 (HCV NS5B polymerase) of less than 100 nM.

In the case of `CS(=O)(=O)Nc1ccc2c(c1)S(=O)(=O)N=C(c1c(O)n3cc(F)ccc3c(Cc3ccc(F)c(F)c3)c1=O)N2` [Compound 102S], the EC50 (HCV Replicon) is reported as less than 100 nM and the EC50 (HCV NS5B polymerase) is reported as less than 100 nM.

Work on `CS(=O)(=O)Nc1ccc2c(c1)S(=O)(=O)N=C(c1c(O)n3ccccc3c(Cc3cc(F)cc(F)c3)c1=O)N2` [Compound 105S] yielded an EC50 (HCV Replicon) of less than 100 nM and an EC50 (HCV NS5B polymerase) of less than 100 nM.

`CS(=O)(=O)Nc1ccc2c(c1)S(=O)(=O)N=C(c1c(O)n3cc(F)ccc3c(Cc3ccc(F)cc3)c1=O)N2` [Compound 103S] gave an EC50 (HCV Replicon) of less than 100 nM and an EC50 (HCV NS5B polymerase) of less than 100 nM.
